One block for each molecule: values may come before it. Active and inactive are the calls of the source. The rule behind the calls is not given here.
Experiments:
[1] = Binding affinity to HSP90 ATPase domain by TR-FRET assay
[2] = Binding affinity HSP90 ATPase domain at 100 uM by STD competition spectroscopy
[3] = Binding affinity to HSP90 ATPase domain assessed as broadening of compound signals using [13C]labeled compound at 20 uM by NMR spectroscopy
[4] = Binding affinity HSP90 ATPase domain assessed as broadening of compound signals using [13C]labeled compound at 200 uM by NMR spectroscopy
[5] = Binding affinity bovine carbonic anhydrase; design: species or system Bos taurus
Bos taurus = species: Bos taurus; assay: Binding affinity bovine carbonic anhydrase assessed as broadening of compound signals using [13C]labeled compound at 20 uM by NMR spectroscopy
[6] = Binding affinity bovine carbonic anhydrase by surface plasma resonance method; design: species or system Bos taurus

Ki [1]: 11 µM
Activity [2]: Active
Activity [3]: Dose-dependent effect
Compound: COc1ccc(Cl)cc1-c1cc(C)nc(N)n1

Ki [1]: 14 µM
Compound: Cc1cc(-c2ccccc2)nc(N)n1

Ki [1]: 5 µM
Activity [4]: Active
Compound: Cc1cc(-c2cccc3ccccc23)nc(N)n1

Ki [5]: 48 µM
Compound: CCN1CCCC1CNC(=O)c1cc(S(N)(=O)=O)ccc1OC (centres undefined) [SULPIRIDE]

Activity (Bos taurus): Active
Kd [6]: 1 µM
Compound: NS(=O)(=O)c1ccc(F)cc1

From ChEMBL document CHEMBL2157881, “Labeled Ligand Displacement: Extending NMR-Based Screening of Protein Targets” (ACS Med Chem Lett, 2010)
